The target of assay [1] is T1, SGK1 (Homo sapiens, UniProt O00141).
T1 sequence (O00141 1-431): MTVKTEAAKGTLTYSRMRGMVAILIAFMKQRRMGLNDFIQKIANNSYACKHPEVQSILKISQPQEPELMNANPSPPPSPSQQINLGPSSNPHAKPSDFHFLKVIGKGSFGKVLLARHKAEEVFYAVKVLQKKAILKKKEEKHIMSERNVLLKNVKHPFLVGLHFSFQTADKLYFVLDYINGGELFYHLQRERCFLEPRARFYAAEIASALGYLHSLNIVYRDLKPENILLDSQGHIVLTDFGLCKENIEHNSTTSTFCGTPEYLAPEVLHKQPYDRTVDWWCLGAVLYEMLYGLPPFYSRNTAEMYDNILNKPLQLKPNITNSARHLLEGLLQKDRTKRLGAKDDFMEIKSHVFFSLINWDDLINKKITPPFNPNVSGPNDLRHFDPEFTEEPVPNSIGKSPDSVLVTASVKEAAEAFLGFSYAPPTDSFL
Kind of assay: KinaseProfiler Assay, AGC kinase panel. It is filed as biochemical. Set-up: purchased Eurofins Discovery (KinaseProfiler Service). Conditions: HBT 10 µmol; normalized by positive inhibitors. The text has this: 20 structurally related flavonoids of HBT were collected, which differ in the number and position of —OH groups, and examined for their effects on SGK1 activity. Based on the docking prediction, the —OH group at the C‐4’ position of HBT was required for the interaction with the key SGK1 residue D177. Therefore, the 20 flavonoids were divided into two classes according to the presence or absence of an —OH group at C‐4’ (Figure 4B). At both tested concentrations, flavonoids with an —OH group at C‐4’ (class A) inhibited SGK1 more than those without an —OH group at C‐4’ (class B) (Figure 4C). The IC50 of each compound is listed in Figure 4D; and Figure S6 (Supporting Information). […] Conversely, the absence of an ‐OH group at C‐8 led to a greater than 10‐fold reduction in flavonoid SGK1 inhibitory activity, as shown by the performance of A1 or A4. […] The inhibitory activity of HBT (10 µmol) against 28 human AGC kinases was tested by KinaseProfiler Assay (Eurofins Discovery). The percentage of HBT's inhibitory activity against each kinase was normalized by the respective positive inhibitors of AGC kinases.
The initial crystal structures of SGK1 (PDB entry: 3HDN, 3HDM, and 2R5T) were obtained from the Protein Data Bank (PDB). The prepared inhibitors were then docked by Glide with the extra precision (XP) scoring mode to estimate the binding affinity for each protein–ligand complex. […]

Assay [2] addresses T1, SGK1. The assay is described as follows: Mass spectrometry-based SGK1 kinase inhibitory assay (LC/MS of phosphorylated […]). It is filed as biochemical. To be noted: MS-based kinase inhibitory assay. The text has this: (§1) To identify active compounds with SGK1 inhibitory activity from Ext.R, a novel mass‐spectrometry based kinase inhibitory assay was developed. A polypeptide sequence ([…], m/z: 618.6) derived from glycogen Synthase Kinase‐3(GSK3), a known substrate of SGK1, was optimized and synthesized. We subsequently used liquid chromatography coupled with mass spectrometry (LC/MS) to detect and quantify its phosphorylation level ([…](p)FAE, m/z:658.7) (Figure 3A).^[ [26] ^] Basal level SGK1 was supplemented to each well, and the peak area of phosphorylation was measured in the presence or absence of testing compounds. […] After investigating the major chemical constituents in Ext.R (Table S3, Supporting Information), a set of compounds in Ext.R were subsequently screened for their impacts on SGK1 activity. […] The direct interaction between HBT and SGK1 was further verified by temperature‐ and dose‐dependent cellular thermal shift assays (Figure 3E,F). We further performed a direct binding assay of HBT to SGK1 by KINOMEscan assay (Eurofins Discovery).
Synthesis of […] was prepared by Shanghai Sangong Biotech. In order to ensure the phosphorylation reaction of SGK1, SGK1 (0.25 µg mL^−1) was added to kinase buffer (25 mmol Tris [pH 7.5], 5 mmol β‐glycerolphosphate, 2 mmol DTT, 10 mmol MgCl2) with the substrate peptide […] (25 µmol) and ATP (200 µmol) and incubated for 1 h at 30 °C in the presence or absence of inhibitors. A concentration‐dependent assay for SGK1 at different concentrations (0.05, 0.1, 0.2, 0.25, and 0.3 µg mL^−1) was performed. Reactions were terminated by the addition of methyl alcohol with 0.1% trifluoroacetic acid (TFA), and supernatants were analyzed by the Agilent 1100 LC system (Agilent Technologies, USA) and a 1946D single quadrupole mass spectrometer. The acquisition parameters for LC/MS were set for positive ionization mode and selected ion monitoring (SIM) m/z values of 618.6 and 658.7 for the substrate peptide and product peptide respectively. Chromatographic separation was performed by a reversed‐phase ZORBAX SB‐C18 analytical column. The mobile phase included water containing 0.1% v/v TFA (A) and acetonitrile containing 0.1% v/v TFA (B). The flow rate was 0.6 mL min^−1. A gradient program was carried out according to the following profile: 0 min, 13% B; 15 min, 28% B; 16 min, 100% B. The constituents of Ext.R were screened by the assay to evaluate their inhibitory effects on SGK1 activity. A minimum of three replicates of each sample were analyzed and averaged together. Inhibition of SGK1 was calculated by the following equation (1) Inhibitionrate%=PC−PS/PC P C and P S represented the peak area of product peptide in the control group without test compounds and the tested sample group with various test compounds, respectively.

Assay [3] addresses T1, SGK1. Kind of assay: Cellular thermal shift assay in cell lysates. It is filed as binding.
Source text: as §1
Figure 3 Mass spectrometry‐based kinase inhibitory assay for screening SGK1 inhibitor. A) Illustration of the mass spectrometry‐based assay for screening SGK1 inhibitors. […] G) Direct binding assay of HBT to SGK1 by KINOMEscan assay (Eurofins Discovery).

The values that follow come from article PMC8805583, “Discovery of Herbacetin as a Novel SGK1 Inhibitor to Alleviate Myocardial Hypertrophy” (Advanced Science, 2021).

The structures appear in SMILES notation.

Consider `O=c1c(O)c(-c2ccc(O)cc2)oc2c(O)c(O)cc(O)c12` [HBT, herbacetin], for which the “inhibitory activity on SGK1” value against SGK1 [1] is recorded as 95%. The IC50 against SGK1 [2] is 752 nM. Also, the “thermal stability of SGK1, concentration-dependent cellular thermal shift assay” value at SGK1 [3] (65 °C) is reported as “increases the thermal stability of SGK1”. The “thermal stability of SGK1, temperature-dependent cellular thermal shift assay” value at SGK1 [3] (HBT 100 µmol) was “increases the thermal stability of SGK1”.

The IC50 is the concentration needed to halve the response being measured. A lower IC50 goes with inhibition by little substance.
